Paper PMC9537177, “A VEGFR targeting peptide-drug conjugate (PDC) suppresses tumor angiogenesis in a TACE model for hepatocellular carcinoma therapy” (Cell Death Discovery, 2022)
“Also recorded” adds a separate entry of the source. Square brackets hold non-standard residues; d marks the D form. Peptide text beside a SMILES is read from it. Aib = CC(C)(N)C(=O)O; Ahx = NCCCCCC(=O)O

Tests used:
Huh 7 cells = settings: 10 μM, 24 h, Annexin V-PI FACS
Procedure: Viable cells, early apoptotic cells, necrotic cells, late apoptotic cells were represented by Q4, Q3, Q2 and Q1 respectively.
(§1) The apoptosis assay was performed according to the manufacturer’s instructions using an Annexin V: Fluorescein Isothiocyanate (FITC) Apoptosis Detection Kit I (BD Pharmingen™). Briefly, Huh 7 or HUVEC cells were seeded in a 12-well plate and allowed to grow for 24 h in medium with 10% FBS. Then, the cells were treated with the different peptides in medium with 5% FBS for 24 h’ incubation. The cells were harvested with 0.25% trypsin/EDTA, washed twice with PBS and suspended in 1 × binding buffer. The suspended cells were treated with FITC-labeled Annexin V and propidium iodide (PI) as the protocol indicated and then analyzed by flow cytometry to determine the apoptotic cells. The cells with positive fluorescence intensity signals for both FITC and PI were used for the apoptotic cell count.

VX2 liver tumor = assay: VX2 rabbit liver tumor model with TAE/TACE: tumor growth, necrosis, apoptosis, proliferation, angiogenesis; type: in vivo, New Zealand white rabbits
Procedure: New Zealand white rabbits (2.5-3 kg) were purchased from the Laboratory Animal Center of Tongji Medical College of Huazhong University of Science and Technology (Wuhan, China). All the animal experimental procedures were performed in accordance with the National Institutes of Health Guidelines for the Care and Use of Laboratory Animals and the protocol was approved by the Ethics Committee of Tongji Medical College, Huazhong University of Science and Technology. Blinding was not possible in most animal experiments. The rabbit VX2 liver tumor model was established according to the method reported by Qian K et al.. […] The acquisition parameters of the sequence are as follows: […], TR 2750 ms, TE 65 ms, the field of view 120 mm × 120 mm, Slice thickness 3 mm in the transverse plane, matrix 152 × 152. The multi-vane technique was used to reduce artifacts and improve image quality, acquisition time 3 min […]; […] Seven days after TACE procedure, tumor size was evaluated again by MR scan and the tumor volume was calculated by formula: V = a * b^2/2 (a, long diameter; b, short diameter). And tumor growth rate was calculated by formula: […] Finally, the VX2 rabbits were sacrificed and the tumor tissues were harvested for biochemical analysis and histopathological examination. […] The IHC staining procedures were performed as previously described. Briefly, the sections were blocked in 3% H2O2 for 25 min and then incubated with goat serum for 15 min. Subsequently, the sections were first washed and incubated with anti-VEGF (1:200, Abcam, USA), and anti-CD31 (1:20; Abcam, USA) overnight at 4 °C, and then incubated with second antibody (Abcam, USA) at 37 °C for 50 min. Next, the sections were stained with 3, 3'-diaminobenzidine (DAB, Service bio, Wuhan […] Biotechnology Co., Ltd., China) for 6 min and rinsed and stained in hematoxylin for 30 s. The sections were then dehydrated in gradient alcohol and sealed in neutral resins. VEGF expression was assessed by semiquantitative IHC based on staining intensity and density, the staining intensity was scored as 0 (negative), 1 (weak), 2 (moderate), and 3 (strong), while the staining density was scored on the basis of the percentage of positively stained cells: 0 (0%), 1 (1-25%), 2 (26-50%), 3 (51-75%), and 4 (76-100%). The total VEGF IHC score was calculated by multiplying the intensity score by the density score. Microvessel density (MVD) was calculated according to the method developed by Weidner et al.

HUVEC cells [1] = assay: Wound-healing assay of HUVEC cells; type: cell-based, human; settings: 10 μM, 24 h
Procedure: Wound-healing assay was performed according to the protocols reported by Liang et al.. Briefly, HUVEC cells were plated into 12-well plate and grown to create a confluent monolayer. The monolayer was grazed in a straight line to create a “scratch” with a pipette tip. Markings were created close to the scratch to be used as reference points. Then cells were treated with different peptides for 24 h at 37 °C. Images were collected with a Leica DFC480 camera on a phase-contrast microscope equipped with a 10 × objective at room temperature. The free area of the wound was measured by image software. Supplementary Figure S1. Wound healing assay to detect the cell migration influenced by different peptides.

[2] = test system: HUVEC cells with high expression of VEGFR; assay: Cell competitive binding (cell affinity) assay by FACS, HUVEC; type: cell-based, human; settings: QR-KLU 0, 2.5, 5, 10, 20 μM pre-incubated 30 min at 37 °C, then 10 μM FAM-QR for 4 h
Procedure: (§2) We then performed cell competitive binding assay to evaluate the affinity of the peptide conjugate to endothelial cell HUVEC with high expression of VEGFR [29]. FAM-labeled VEGF125−136 peptide QR was cultured with HUVEC cells for 4 h and then cellular penetration ability was tested by FACS. […] To further confirm our result, we then used HT29 cells to repeat this assay as HT29 cells are reported with low expression of VEGFR [29].
(§3) Fig. 2 The cell affinity of QR-KLU with different cell lines. Cell penetration of peptide QR-KLU with HUVEC cells (A) and HT29 cells (B). The cells were respectively treated with PBS, 10 μM FAM-QR + 0 μM QR-KLU, 10 μM FAM-QR + 2.5 μM QR-KLU, 10 μM FAM-QR + 5 μM QR-KLU, 10 μM FAM-QR + 10 μM QR-KLU, 10 μM FAM-QR + 20 μM QR-KLU. C The median fluorescence of HUVEC and HT29 cells treated with different peptides as mention in Fig. 2A, B.
(§4) The affinity ability of peptide QR-KLU to endothelial cells was determined by fluorescence-activated cell sorting (FACS) analysis. Briefly, the HUVEC cells were incubated on a 24-well plate for 24 h in growth medium. Then peptide QR-KLU in medium with different concentrations (0 μM, 2.5 μM, 5 μM, 10 μM, 20 μM) were respectively incubated with HUVEC cells for 30 min at 37 °C. Next, carboxy-fluorescein (FAM)-labelled-QR peptide (10 μM) were added to each well for 4 h at 37 °C. […] FACS was performed and the results were analyzed using FlowJo.

[3] = test system: HT29 cells with low expression of VEGFR; assay: Cell competitive binding (cell affinity) assay by FACS, HT29; type: cell-based, human; settings: QR-KLU 0-20 μM with 10 μM FAM-QR
Procedure: as §2, §3, §4

[4] = Therapeutic safety in VX2 tumor-bearing rabbits (organ H&E, serum biochemistry)
Procedure: Twenty-four VX2 tumor-burdened rabbits were evenly divided into four groups. After fasting for 12 h, the rabbits were anesthetized by intravenous injection of pentobarbital sodium solution (2 wt.%, 30 mg/kg). The rabbit’s right femoral artery was dissected and a 4-F Cobra catheter (Cook, Inc., Bloomington, Indiana) was inserted into the celiac artery, hepatic arteriography was then performed under the guidance of digital subtraction angiography (DSA), and a 2.7-F coaxial microcatheter (Terumo, Tokyo, Japan) was super-selectively inserted into the tumor donor branch subsequently. The emulsion of drugs and lipiodol were slowly injected into the tumor-feeding artery through the above microcatheter at a speed of 0.5 mL/min. […] After obtaining all DSA images, the sheaths and catheters were removed.
Seven days after treatment, the liver tumors, hearts, lungs, kidneys and spleens were harvested and fixed in 4% phosphate-buffered paraformaldehyde, the specimens were embedded in paraffin blocks and cut into 5‐μm‐thick sections. Following the manufacturer’s guidelines, the sections were stained with haematoxylin and eosin (H&E) for the evaluation of organ toxicity and tumor necrosis, Ki-67 staining and transfer-mediated dUTP nick end labeling (TUNEL) technique were used to detect tumor proliferation and apoptosis, respectively.
Blood samples were collected before treatment and at 1, 3, 7 days after treatment. The blood samples were stood at room temperature for 30 min, and the serum was obtained by centrifugation (room temperature, 8000 rpm, 10 min) for assessment of alanine aminotransferase (ALT), aspartate aminotransferase (AST), total bilirubin (TBIL) and creatinine (CREA). The assays were performed using the commercially ready-made kits following the manufacturers’ instructions.

HUVEC cells [5] = assay: Annexin V-FITC/PI cell apoptosis assay, HUVEC; type: cell-based, human; settings: 10 μM, 24 h, Annexin V-PI FACS
Procedure: The improved proapoptotic activity of QR-KLU was further confirmed by Annexin V-PI staining through FACS. Viable cells, early apoptotic cells, necrotic cells, late apoptotic cells were represented by Q4, Q3, Q2 and Q1 respectively. […] Besides, QR-KLU induced cell apoptosis in a dose-dependent manner. […] The percentage of apoptotic cells in KLU peptide at 20 μM were about 25% in both Huh7 cells and HUVEC cells.
as §1
Supplementary Figure S2. Cell apoptosis of HUVEC induced by different peptides. HUVEC cells were treated with PBS, 80μM QR, 20μM KLU, 5μM QR-KLU, 10μM QR-KLU for 24 hours before detection by FACS.

[6] = 7 days after treatment, versus NS group

For `CC(=O)N[C@@H](CCC(N)=O)C(=O)N[C@@H](CCCCN)C(=O)N[C@@H](CCCNC(=N)N)C(=O)N[C@@H](CCCCN)C(=O)N[C@@H](CCCNC(=N)N)C(=O)N[C@@H](CCCCN)C(=O)N[C@@H](CCCCN)C(=O)N[C@@H](CO)C(=O)N[C@@H](CCCNC(=N)N)C(=O)N[C@@H](Cc1ccc(O)cc1)C(=O)N[C@@H](CCCCN)C(=O)N[C@@H](CO)C(=O)NCCCCCC(=O)N[C@@H](CCCCN)C(=O)N[C@@H](CC(C)C)C(=O)NC(C)(C)C(=O)N[C@@H](CCCCN)C(=O)N[C@@H](CC(C)C)C(=O)NC(C)(C)C(=O)N[C@@H](CCCCN)C(=O)N[C@@H](CCCCN)C(=O)N[C@@H](CC(C)C)C(=O)NC(C)(C)C(=O)N[C@@H](CCCCN)C(=O)N[C@@H](CC(C)C)C(=O)NC(C)(C)C(=O)N[C@@H](CCCCN)C(N)=O` [QR-KLU] (Ac-QKRKRKKSRYKS[Ahx]KL[Aib]KL[Aib]KKL[Aib]KL[Aib]K-NH2; N-terminus and C-terminus assumed), the “apoptosis rate in Huh 7 cells” value (Huh 7 cells) was “over 60%”, the “mean tumor volume at 7 days after TAE procedure” value (VX2 liver tumor; 0.5 mL lipiodol emulsion into tumor-feeding artery, DOX 2 mg/kg, KLU 4 mg/kg, QR-KLU 4 mg/kg, MR images, 24 rabbits evenly in four groups, mean ± SD) was 1008.5 ± 370.7 mm^3 and the “tumor growth rate (V7/V0 × 100%)” value (VX2 liver tumor; 7 days after TAE, DOX 2 mg/kg, KLU 4 mg/kg, QR-KLU 4 mg/kg in lipiodol, NS group 276.4%) was “significantly lower than that of the NS group; also recorded: significantly lower than the other three groups”. The “VEGF IHC score in tumor” value (VX2 liver tumor; 7 days after embolization, IHC intensity × density score, compared with NS group) was “significantly reduced the expression of CD31 and VEGF”, the “microvessel density (MVD), CD31 IHC” value (VX2 liver tumor; 7 days after embolization, mean of three ×200 fields, compared with NS group) was “reduce the MVD in the tumor” and the “mean proportion of apoptotic cells in tumor (TUNEL)” value (VX2 liver tumor; [6]) was “significantly higher than that in NS group; also recorded: highest”. The “mean proportion of proliferating cells in tumor (Ki67)” value (VX2 liver tumor; [6]) was “significantly lower than that in NS group; also recorded: lowest”, the “mean tumor volume one day before TAE procedure” value (VX2 liver tumor; baseline, MR images, V = a*b^2/2, VX2 rabbits, 24 rabbits evenly in four groups, mean ± SD) was 899.7 ± 394.0 mm^3 and the “cell migration of HUVEC (wound epithelial gap)” value (HUVEC cells [1]) was “the wound epithelial gap was unchanged or even bigger”. For the same molecule, the “effect of QR-KLU on cell penetration of FAM-labeled peptide QR in HUVEC” value [2] was “decreased cell penetration ability”, the “effect of QR-KLU on cell penetration of FAM-labeled peptide QR in HT29” value [3] was “could not obviously affect cell penetration ability” and the “H&E staining of hearts, lungs, kidneys and spleens” value ([4]; 7 days after TACE, 4 mg/kg in lipiodol) was “no apparent tissue injury”. The “liver and renal toxicity (ALT, AST, TBIL, CREA in serum)” value ([4]; before and 1, 3, 7 days after treatment, 4 mg/kg in lipiodol via TAE) was “no significant liver or renal toxicity” and the “apoptosis rate in HUVEC cells” value (HUVEC cells [5]) was “over 40%”.
